Measured values published in patent publication US5837219A, “Labelled acyl-L-carnitine and diagnostic agent” (Japan Science and Technology Corporation, priority 1995, dated 1998).
“Also recorded” adds a separate entry of the source.

Tests used:
[1] = PET uptake of labelled compounds into the brain of anesthetized rhesus monkeys after intravenous administration; assay type: in vivo, rhesus monkey; details: i.v.; for uptake value into the brain: rhesus monkey under anesthesia, whole brain (WB 9), FIG. 1
From the text: ACN, ACM, CRN and ACC prepared in Examples 1, 3 and 5 in equal amounts were intravenously administered to rhesus monkeys under anesthesia, respectively, at intervals of two hours, and the uptake value of those labelled compounds into the brain (whole brain: WB 9) and into the temporal muscle (TEM 11) was traced with time by the use of PET. The uptake value was obtained by the following calculation: [formula]

[2] = PET uptake of ACM into the visual cortex, normal volunteers versus CFS patients; assay type: in vivo, human (normal volunteers; details: i.v.
Experimental: (§1) ACM synthesized in Example 1 was intravenously administered to normal volunteers (n=5) and CFS patients (n=6), and the ACM uptake values into the whole brain and visual cortex were measured with time by means of PET.

[3] = PET uptake of ACM into the whole brain, normal volunteers versus CFS patients; assay type: in vivo, human (normal volunteers; details: i.v., normal n=5, CFS n=6 (FIG. 3: n=5)
Experimental: as §1

[4] = ACM uptake into erythrocytes and erythrocyte/blood plasma ratio (hematocrit tube and imaging plate), normal volunteers versus CFS patients; assay type: in vivo, human (normal volunteers
Experimental: (§2) Blood was sampled from the normal volunteers and the CFS patients and the ACM uptake values in the blood plasma and blood cells thereof was measured by the combined method of hematocrit tube and imaging plate.

[5] = ACM uptake value in blood plasma (hematocrit tube and imaging plate), normal volunteers versus CFS patients; assay type: in vivo, human (normal volunteers; details: normal n=5, CFS n=6, FIG. 6
Experimental: as §2

[6] = PET uptake of ACM into the whole brain of a normal volunteer, rest and task condition; assay type: in vivo, human (normal volunteer); details: i.v., FIG. 2
Experimental: ACM synthesized in Example 3 was intravenously administered to a normal volunteer, and the uptake value of ACM into the whole brain was measured by use of PET in both the rest condition (WR 9) and task condition (calculation task, memory task: WB9-TASK).

Compound: CC(=O)O[C@H](CC(=O)[O-])C[N+](C)(C)[11CH3] [ACC, acetyl-L-carnitine with the same label]
- uptake value into the brain [1]: not taken up into the brain almost at all

Compound: C[N+](C)(C)C[C@@H](CC(=O)[O-])OC([11CH3])=O [ACM, Acetyl-L-carnitine with the ^11 C-labelled secondary carbon atom of acetyl group]
- difference between CFS patients and normal volunteers in ACM uptake, visual cortex versus whole brain ([2]; FIG. 3 and FIG. 4): particularly observed in the visual cortex than in the whole brain
- increase with time in the ACM uptake value into the visual cortex, CFS patients versus normal volunteers ([2]; normal n=5, CFS n=6, FIG. 4): significantly lower than that in the normal volunteers
- increase with time in the ACM uptake value into the whole brain, CFS patients versus normal volunteers [3]: significantly lower than that in the normal volunteers
- ratio erythrocyte/blood plasma of ACM uptake value, increase with time, CFS patients ([4]; CFS patients n=2, FIG. 7): inhibited in the CFS patients
- ACM uptake value into erythrocyte, CFS patients versus normal volunteers ([4]; inferred from erythrocyte/blood plasma ratio and unchanged plasma uptake): significantly lower than that in the normal volunteers
- ratio erythrocyte/blood plasma of ACM uptake value, change with time, normal subjects ([4]; normal subjects n=2, FIG. 7): increased with time in the normal subjects
- ACM uptake value in blood plasma, course with time, normal volunteers and CFS patients [5]: almost the same course; also recorded: no difference
- uptake into the whole brain in the task condition relative to rest ([6]; calculation and memory task versus rest): about twice
- uptake into the whole brain with time ([6]; rest condition): taken up with time even during rest condition
- uptake value into the brain [1]: excellent
- change of brain uptake with time ([1]; rhesus monkey, up to 60 minutes after the administration): almost linearly increased up to 60 minutes after the administration

Compound: C[11C](=O)O[C@H](CC(=O)[O-])C[N+](C)(C)C [ACN, Acetyl-L-carnitine with ^11 C-labelled primary carbon atom of acetyl group]
- uptake value into the brain [1]: taken up into the brain only slightly

Compound: C[N+](C)([11CH3])C[C@H](O)CC(=O)[O-] [CRN, L-carnitine with the ^11 C-labelled N-methyl carbon atom of carnitine, reference compound]
- uptake value into the brain [1]: not taken up into the brain almost at all
